Patent US9469645B2, “Compounds and compositions for the treatment of parasitic diseases” (Novartis AG, priority 2009, dated 2016)
pEC50: −log10 of the molar value.

Experiments:
3D7 P. falciparum strain = experiment: parasite proliferation assay in infected red blood cells (SYBR Green I); format: cell-based, Plasmodium falciparum; conditions: Plasmodium falciparum, 3D7, Erythrocyte, 3D7 strain; read-out: EC50 3D7 strain
Procedure, shortened: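 P. falciparum 3D7 grown in O+ human erythrocytes to 3–8% parasitemia and exposed to compounds. Proliferation read as the increase in parasite DNA. Detection used SYBR Green I in saponin/triton-X/EDTA lysis buffer, with overnight lysis at room temperature.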

W2 strain = experiment: parasite proliferation assay in infected red blood cells (SYBR Green I), W2 strain; format: cell-based, Plasmodium falciparum; conditions: Plasmodium falciparum, Erythrocyte
From the text: Compounds of the invention can be assayed to measure their capacity to inhibit proliferation of parasitemia in infected red blood cells. The proliferation is quantified by the addition of SYBR Green I (INVITROGEN)® dye which has a high affinity for double stranded DNA.

SMILES	pEC50 (3D7 P. falciparum strain)	pEC50 (W2 strain)
CC1(C)c2nc(-c3ccc(F)cc3)c(Nc3ccc(C#N)cc3)n2CCN1C(=O)CN [Compound 425]	8.00	7.92
CC1(C)NCCn2c1nc(-c1ccc(F)cc1)c2Nc1ccc(C#N)cc1 [Compound 426]	6.74	6.57
COc1cc(Nc2c(-c3ccc(F)cc3)nc3n2CCN(C(=O)C(C)(C)N)C3)cc(F)c1F [Compound 427]	6.68	6.36
Cc1cc(Nc2c(-c3ccc(F)cc3)nc3n2CCN(C(=O)C(C)(C)N)C3)cc(C)c1F [Compound 428]	6.77	6.62
N[C@@H](CC1CCC1)C(=O)N1CCn2c(nc(-c3ccc(F)cc3)c2Nc2ccc(F)c(F)c2)C1 [Compound 429]	7.70	7.44
CC(C)[C@@H](O)C(=O)N1CCn2c(nc(-c3ccc(F)cc3)c2Nc2ccc(F)c(F)c2)C1 [Compound 430]	8.00	7.72
N[C@@H](Cc1cscn1)C(=O)N1CCn2c(nc(-c3ccc(F)cc3)c2Nc2ccc(F)c(F)c2)C1 [Compound 431]	7.15	7.10
Cc1ccc(C[C@H](N)C(=O)N2CCn3c(nc(-c4ccc(F)cc4)c3Nc3ccc(F)c(F)c3)C2)cc1 [Compound 432]	7.22	7.17
N[C@@H](Cc1ccc(F)c(F)c1)C(=O)N1CCn2c(nc(-c3ccc(F)cc3)c2Nc2ccc(F)c(F)c2)C1 [Compound 433]	7.40	7.31
CC(C)[C@H](N)C(=O)N1CCn2c(nc(-c3ccc(F)cc3)c2Nc2ccc(F)c(F)c2)C1 [Compound 434]	7.70	7.72
C[C@H](N)C(=O)N1CCn2c(nc(-c3ccc(F)cc3)c2Nc2ccc(F)c(F)c2)C1 [Compound 435]	7.30	7.01
N[C@H](C(=O)N1CCn2c(nc(-c3ccc(F)cc3)c2Nc2ccc(F)c(F)c2)C1)c1ccc(F)cc1 [Compound 436]	7.52	7.28
N[C@H](C(=O)N1CCn2c(nc(-c3ccc(F)cc3)c2Nc2ccc(F)c(F)c2)C1)C1CC1 [Compound 437]	7.70	7.55
N[C@@H](CC1CC1)C(=O)N1CCn2c(nc(-c3ccc(F)cc3)c2Nc2ccc(F)c(F)c2)C1 [Compound 438]	7.70	7.64
CC(C)C[C@H](N)C(=O)N1CCn2c(nc(-c3ccc(F)cc3)c2Nc2ccc(F)c(F)c2)C1 [Compound 439]	7.52	7.40
CC(C)[C@H](O)C(=O)N1CCn2c(nc(-c3ccc(F)cc3)c2Nc2ccc(F)c(F)c2)C1 [Compound 440]	7.70	7.55
O=C([C@@H]1CCN1)N1CCn2c(nc(-c3ccc(F)cc3)c2Nc2ccc(F)c(F)c2)C1 [Compound 441]	7.22	7.09
CC[C@H](C)[C@H](N)C(=O)N1CCn2c(nc(-c3ccc(F)cc3)c2Nc2ccc(F)c(F)c2)C1 [Compound 442]	7.70	7.48
N[C@@H](Cc1ccc(F)cc1)C(=O)N1CCn2c(nc(-c3ccc(F)cc3)c2Nc2ccc(F)c(F)c2)C1 [Compound 443]	7.30	7.26
CC(C)N(c1ccc(Cl)c(F)c1)c1c(-c2ccc(F)cc2)nc2n1CCNC2 [Compound 444]	5.14	5.22

SMILES	pEC50 (3D7 P. falciparum strain)	pEC50 (W2 strain)
CC(C)N(c1cccc(F)c1)c1c(-c2ccc(F)cc2)nc2n1CCNC2 [Compound 445]	5.59	5.49
CCN(c1cccc(F)c1)c1c(-c2ccc(F)cc2)nc2n1CCNC2 [Compound 446]	6.51	6.61
C[C@H](N)C(=O)N1CCn2c(nc(-c3ccc(F)cc3)c2Nc2ccc(Cl)cc2)C1 [Compound 448]	7.70	7.66
CC(C)[C@H](N)C(=O)N1CCn2c(nc(-c3ccc(F)cc3)c2Nc2ccc(Cl)cc2)C1 [Compound 449]	7.52	7.59
N[C@H](C(=O)N1CCn2c(nc(-c3ccc(F)cc3)c2Nc2ccc(Cl)cc2)C1)C1CC1 [Compound 450]	7.70	7.82
N[C@@H](CC1CC1)C(=O)N1CCn2c(nc(-c3ccc(F)cc3)c2Nc2ccc(Cl)cc2)C1 [Compound 451]	7.52	7.72
N[C@@H](CC1CCC1)C(=O)N1CCn2c(nc(-c3ccc(F)cc3)c2Nc2ccc(Cl)cc2)C1 [Compound 452]	7.70	7.72
CC(C)C[C@H](N)C(=O)N1CCn2c(nc(-c3ccc(F)cc3)c2Nc2ccc(Cl)cc2)C1 [Compound 453]	7.70	7.68
CC[C@H](C)[C@H](N)C(=O)N1CCn2c(nc(-c3ccc(F)cc3)c2Nc2ccc(Cl)cc2)C1 [Compound 454]	7.70	8.10
CC(C)[C@H](O)C(=O)N1CCn2c(nc(-c3ccc(F)cc3)c2Nc2ccc(Cl)cc2)C1 [Compound 455]	8.00	8.10
CC(C)[C@@H](O)C(=O)N1CCn2c(nc(-c3ccc(F)cc3)c2Nc2ccc(Cl)cc2)C1 [Compound 456]	7.70	7.82
N[C@H](C(=O)N1CCn2c(nc(-c3ccc(F)cc3)c2Nc2ccc(Cl)cc2)C1)c1ccc(F)cc1 [Compound 457]	7.70	7.96
N[C@@H](Cc1ccc(F)cc1)C(=O)N1CCn2c(nc(-c3ccc(F)cc3)c2Nc2ccc(Cl)cc2)C1 [Compound 458]	7.70	7.77
Cc1ccc(C[C@H](N)C(=O)N2CCn3c(nc(-c4ccc(F)cc4)c3Nc3ccc(Cl)cc3)C2)cc1 [Compound 459]	7.40	7.62
N[C@@H](Cc1ccc(F)c(F)c1)C(=O)N1CCn2c(nc(-c3ccc(F)cc3)c2Nc2ccc(Cl)cc2)C1 [Compound 460]	7.40	7.48
N[C@@H](Cc1cscn1)C(=O)N1CCn2c(nc(-c3ccc(F)cc3)c2Nc2ccc(Cl)cc2)C1 [Compound 461]	7.52	7.66
O=C([C@@H]1CCN1)N1CCn2c(nc(-c3ccc(F)cc3)c2Nc2ccc(Cl)cc2)C1 [Compound 462]	7.30	7.43
CC(C)(C)[C@H](N)C(=O)N1CCn2c(nc(-c3ccc(F)cc3)c2Nc2ccc(Cl)cc2)C1 [Compound 463]	7.40	7.62
CC(C)[C@H](N)C(=O)N1CCn2c(nc(-c3ccc(F)cc3)c2Nc2ccc(F)cc2)C1 [Compound 464]	7.52	7.62
N[C@H](C(=O)N1CCn2c(nc(-c3ccc(F)cc3)c2Nc2ccc(F)cc2)C1)C1CC1 [Compound 465]	8.72	8.70

SMILES	pEC50 (3D7 P. falciparum strain)	pEC50 (W2 strain)
N[C@@H](CC1CCC1)C(=O)N1CCn2c(nc(-c3ccc(F)cc3)c2Nc2ccc(F)cc2)C1 [Compound 467]	7.70	7.80
CC(C)C[C@H](N)C(=O)N1CCn2c(nc(-c3ccc(F)cc3)c2Nc2ccc(F)cc2)C1 [Compound 468]	7.52	7.70
CC[C@H](C)[C@H](N)C(=O)N1CCn2c(nc(-c3ccc(F)cc3)c2Nc2ccc(F)cc2)C1 [Compound 469]	7.70	7.80
CC(C)[C@H](O)C(=O)N1CCn2c(nc(-c3ccc(F)cc3)c2Nc2ccc(F)cc2)C1 [Compound 470]	8.00	7.92
CC(C)[C@@H](O)C(=O)N1CCn2c(nc(-c3ccc(F)cc3)c2Nc2ccc(F)cc2)C1 [Compound 471]	7.52	7.52
N[C@H](C(=O)N1CCn2c(nc(-c3ccc(F)cc3)c2Nc2ccc(F)cc2)C1)c1ccc(F)cc1 [Compound 472]	7.30	7.43
N[C@@H](Cc1ccc(F)cc1)C(=O)N1CCn2c(nc(-c3ccc(F)cc3)c2Nc2ccc(F)cc2)C1 [Compound 473]	7.52	7.68
Cc1ccc(C[C@H](N)C(=O)N2CCn3c(nc(-c4ccc(F)cc4)c3Nc3ccc(F)cc3)C2)cc1 [Compound 474]	6.89	7.06
N[C@@H](Cc1ccc(F)c(F)c1)C(=O)N1CCn2c(nc(-c3ccc(F)cc3)c2Nc2ccc(F)cc2)C1 [Compound 475]	7.40	7.52
N[C@@H](Cc1cscn1)C(=O)N1CCn2c(nc(-c3ccc(F)cc3)c2Nc2ccc(F)cc2)C1 [Compound 476]	7.40	7.57
O=C([C@@H]1CCN1)N1CCn2c(nc(-c3ccc(F)cc3)c2Nc2ccc(F)cc2)C1 [Compound 477]	7.15	7.26
CC(C)(C)[C@H](N)C(=O)N1CCn2c(nc(-c3ccc(F)cc3)c2Nc2ccc(F)cc2)C1 [Compound 478]	7.22	7.41
Cc1ccc(Nc2c(-c3ccc(F)cc3)nc3n2CCN(C(=O)[C@@H](N)CC2CCC2)C3)cc1 [Compound 479]	7.70	7.92
Cc1ccc(Nc2c(-c3ccc(F)cc3)nc3n2CCN(C(=O)[C@@H](N)CC(C)C)C3)cc1 [Compound 480]	7.52	7.66
CC[C@H](C)[C@H](N)C(=O)N1CCn2c(nc(-c3ccc(F)cc3)c2Nc2ccc(C)cc2)C1 [Compound 481]	7.70	7.85
Cc1ccc(Nc2c(-c3ccc(F)cc3)nc3n2CCN(C(=O)[C@@H](N)c2ccc(F)cc2)C3)cc1 [Compound 482]	7.70	8.05
Cc1ccc(Nc2c(-c3ccc(F)cc3)nc3n2CCN(C(=O)[C@@H](N)Cc2ccc(F)cc2)C3)cc1 [Compound 483]	7.30	7.60
Cc1ccc(C[C@H](N)C(=O)N2CCn3c(nc(-c4ccc(F)cc4)c3Nc3ccc(C)cc3)C2)cc1 [Compound 484]	7.40	7.64
Cc1ccc(Nc2c(-c3ccc(F)cc3)nc3n2CCN(C(=O)[C@@H](N)Cc2ccc(F)c(F)c2)C3)cc1 [Compound 485]	7.52	7.64
